pIC50: −log10 of the molar value.

From US20240174634A1, “Aldehyde Dehydrogenase Inhibitors and Their Therapeutic Use” (priority 2020, published 2024) come the findings set out here.

The test has as its target T1, ALDH1A3 (Homo sapiens, UniProt P47895).
T1 sequence (P47895 1-512): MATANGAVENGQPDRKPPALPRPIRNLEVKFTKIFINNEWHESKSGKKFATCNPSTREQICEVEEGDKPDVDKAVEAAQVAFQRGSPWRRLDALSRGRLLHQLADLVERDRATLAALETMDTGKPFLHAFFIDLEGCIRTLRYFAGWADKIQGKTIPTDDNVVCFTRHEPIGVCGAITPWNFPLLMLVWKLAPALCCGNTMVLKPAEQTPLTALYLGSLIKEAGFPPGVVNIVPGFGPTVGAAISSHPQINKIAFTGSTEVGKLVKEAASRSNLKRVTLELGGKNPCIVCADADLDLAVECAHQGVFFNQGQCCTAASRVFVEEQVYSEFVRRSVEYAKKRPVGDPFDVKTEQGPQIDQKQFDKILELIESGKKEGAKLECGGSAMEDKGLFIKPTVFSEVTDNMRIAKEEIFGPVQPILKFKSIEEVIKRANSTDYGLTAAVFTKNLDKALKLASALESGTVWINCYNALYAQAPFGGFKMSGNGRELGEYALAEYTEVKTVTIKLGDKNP
The experiment in a line: ALDH1A3 cellular assay (ALDEFLUOR) in WM266.4 melanoma cells. It is filed as cell-based. To be noted: WM266.4 cells; 60 min incubation; percentage of ALDH-positive cells. In a few lines: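 WM266.4 melanoma cells, 7500 per well, incubated overnight, then 60 min at 37 °C with compound (10 μM to 0.0005 μM, 10 points) plus BAAA substrate (500 nM final), verapamil (50 μM) and Hoechst. Imaged BODIPY fluorescence per cell; EC50 from percentage of ALDH-positive cells.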
Regarding `O=C1CCc2cc(OCCN3CCCCC3c3cccc(F)c3)ccc2N1` (centres unmarked) [ALDHI-2038, 6-[2-[2-(3-fluorophenyl)-1-piperidyl]ethoxy]-3,4-dihydro-1H-quinolin-2-one], the pIC50 is 5.00 to 6.00.
Molecule `CC1Oc2cc(OCCN3CCCC3c3cccc(F)c3)ccc2NC1=O` (centres unmarked) [ALDHI-2044, 7-[2-[2-(3-fluorophenyl)pyrrolidin-1-yl]ethoxy]-2-methyl-4H-1,4-benzoxazin-3-one] had a pIC50 of 6.00 to 7.00.
Then `CN(CCOc1ccc2c(c1)CCC(=O)N2)C(CO)c1cccc(F)c1` (centres unmarked) [ALDHI-3003, 6-[2-[[1-(3-fluorophenyl)-2-hydroxy-ethyl]-methyl-amino]ethoxy]-3,4-dihydro-1H-quinolin-2-one], with 6.00 to 7.00; and `CCN(CC)CCN(CCOc1ccc2c(c1)CCC(=O)N2)Cc1ccccc1` [ALDHI-3004, 6-[2-[benzyl-[2-(diethylamino)ethyl]amino]ethoxy]-3,4-dihydro-1H-quinolin-2-one], with above 7.00.
For `O=C1CCc2cc(OCCN3CCCC3c3cccc(F)c3)c(F)cc2N1` (centres unmarked) [ALDHI-2050, 7-fluoro-6-[2-[2-(3-fluorophenyl)pyrrolidin-1-yl]ethoxy]-3,4-dihydro-1H-quinolin-2-one] the value was 6.00 to 7.00; for `O=C1CCc2cc(OCCn3ccnc3-c3ccccc3)ccc2N1` [ALDHI-2041, 6-[2-(2-phenylimidazol-1-yl)ethoxy]-3,4-dihydro-1H-quinolin-2-one], 5.00 to 6.00.
Consider `CCn1cc(C2CCCN2CCOc2ccc3c(c2)CCC(=O)N3)cn1` (centres unmarked) [ALDHI-2016, 6-[2-[2-(1-ethylpyrazol-4-yl)pyrrolidin-1-yl]ethoxy]-3,4-dihydro-1H-quinolin-2-one], for which the negative logarithm of the IC50 (pIC50) was 5.00 to 6.00.
Molecule `CN(CCOc1ccc2c(c1)CCC(=O)N2)Cc1cccc(F)c1` [ALDHI-3001, 6-[2-[(3-fluorophenyl)methyl-methyl-amino]ethoxy]-3,4-dihydro-1H-quinolin-2-one] showed a pIC50 of 6.00 to 7.00.

Usually pIC50 stands for −log10 of the IC50, conventionally taken in molar units. A higher pIC50 goes with a low IC50.
